In US9446039B2, “Aminoheteroaryl compounds as MTH1 inhibitors” (CEMM—FORSCHUNGSZENTRUM FÜR MOLEKULARE MEDIZIN GMBH, priority 2012, dated 2016):

How the values were obtained:
Type in all cases: binding
[1] = molecular target: SW480 colon carcinoma cells lysate proteins (Homo sapiens, UniProt O14602); settings: PreyGene EIF1AY
[2] = molecular target: T1, SW480 colon carcinoma cells lysate proteins (Homo sapiens, UniProt P02533); settings: PreyGene KRT14
T1 sequence (P02533 1-472): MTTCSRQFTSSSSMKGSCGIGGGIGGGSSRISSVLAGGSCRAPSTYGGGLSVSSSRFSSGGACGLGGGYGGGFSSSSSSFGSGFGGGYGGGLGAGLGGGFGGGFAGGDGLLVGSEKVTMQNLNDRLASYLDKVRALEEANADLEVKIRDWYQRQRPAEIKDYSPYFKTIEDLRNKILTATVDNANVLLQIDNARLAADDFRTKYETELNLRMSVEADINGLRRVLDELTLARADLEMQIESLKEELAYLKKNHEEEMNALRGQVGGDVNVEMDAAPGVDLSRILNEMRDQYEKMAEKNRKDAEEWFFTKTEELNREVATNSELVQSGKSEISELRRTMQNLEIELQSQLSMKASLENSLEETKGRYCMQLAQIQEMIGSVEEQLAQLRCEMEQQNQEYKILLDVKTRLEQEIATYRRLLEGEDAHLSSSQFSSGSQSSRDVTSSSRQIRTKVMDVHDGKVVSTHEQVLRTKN

[3] = molecular target: T2, SW480 colon carcinoma cells lysate proteins (Homo sapiens, UniProt P04075); settings: PreyGene ALDOA
T2 sequence (P04075 1-364): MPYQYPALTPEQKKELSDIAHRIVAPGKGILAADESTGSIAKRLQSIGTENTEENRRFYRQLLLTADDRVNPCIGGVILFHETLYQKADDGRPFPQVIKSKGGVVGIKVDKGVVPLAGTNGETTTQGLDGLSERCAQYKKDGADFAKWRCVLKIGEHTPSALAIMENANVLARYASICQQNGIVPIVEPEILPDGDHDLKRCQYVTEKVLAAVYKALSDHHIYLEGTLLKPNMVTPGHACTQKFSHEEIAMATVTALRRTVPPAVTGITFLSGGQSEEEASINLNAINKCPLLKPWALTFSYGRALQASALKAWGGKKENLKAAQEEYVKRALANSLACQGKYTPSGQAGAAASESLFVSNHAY

[4] = molecular target: SW480 colon carcinoma cells lysate proteins (Homo sapiens, UniProt P18085); settings: PreyGene ARF4
[5] = molecular target: T3, SW480 colon carcinoma cells lysate proteins (Homo sapiens, UniProt P22234); settings: PreyGene PAICS
T3 sequence (P22234 1-425): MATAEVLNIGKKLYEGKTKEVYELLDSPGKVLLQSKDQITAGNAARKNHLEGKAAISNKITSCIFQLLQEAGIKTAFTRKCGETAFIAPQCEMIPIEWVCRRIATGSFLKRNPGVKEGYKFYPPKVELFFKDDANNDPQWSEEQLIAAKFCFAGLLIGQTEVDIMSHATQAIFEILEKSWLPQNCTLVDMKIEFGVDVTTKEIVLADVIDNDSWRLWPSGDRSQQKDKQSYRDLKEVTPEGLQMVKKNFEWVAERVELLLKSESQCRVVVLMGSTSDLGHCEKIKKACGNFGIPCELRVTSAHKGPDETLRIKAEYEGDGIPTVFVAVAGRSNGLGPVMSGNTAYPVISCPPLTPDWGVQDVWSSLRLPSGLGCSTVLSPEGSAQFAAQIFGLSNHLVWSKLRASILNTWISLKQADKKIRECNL

[6] = molecular target: T4, SW480 colon carcinoma cells lysate proteins (Homo sapiens, UniProt P31949); settings: PreyGene S100A11
T4 sequence (P31949 1-105): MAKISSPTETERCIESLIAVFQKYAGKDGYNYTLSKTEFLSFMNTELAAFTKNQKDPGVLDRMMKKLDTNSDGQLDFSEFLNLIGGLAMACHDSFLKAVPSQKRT

[7] = molecular target: T5, SW480 colon carcinoma cells lysate proteins (Homo sapiens, UniProt P54577); settings: PreyGene YARS
T5 sequence (P54577 1-528): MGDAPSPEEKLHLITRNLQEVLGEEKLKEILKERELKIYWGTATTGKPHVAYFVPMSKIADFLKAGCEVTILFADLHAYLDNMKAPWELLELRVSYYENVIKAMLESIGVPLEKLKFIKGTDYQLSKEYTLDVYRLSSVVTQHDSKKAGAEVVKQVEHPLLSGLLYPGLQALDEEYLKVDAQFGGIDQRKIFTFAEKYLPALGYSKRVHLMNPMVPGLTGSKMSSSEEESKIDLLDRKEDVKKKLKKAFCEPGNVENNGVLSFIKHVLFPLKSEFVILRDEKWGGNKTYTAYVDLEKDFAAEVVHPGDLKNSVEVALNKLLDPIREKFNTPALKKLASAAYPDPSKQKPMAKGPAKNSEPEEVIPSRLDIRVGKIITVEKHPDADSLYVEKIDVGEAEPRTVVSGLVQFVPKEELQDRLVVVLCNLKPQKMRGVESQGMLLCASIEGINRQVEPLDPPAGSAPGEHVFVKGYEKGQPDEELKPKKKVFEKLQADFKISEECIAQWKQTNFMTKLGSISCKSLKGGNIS

[8] = molecular target: SW480 colon carcinoma cells lysate proteins (Homo sapiens, UniProt Q02878); settings: PreyGene RPL6; SW480 cells

Sequence of SW480 colon carcinoma cells lysate proteins (Homo sapiens, UniProt P18085) (P18085 whole entry): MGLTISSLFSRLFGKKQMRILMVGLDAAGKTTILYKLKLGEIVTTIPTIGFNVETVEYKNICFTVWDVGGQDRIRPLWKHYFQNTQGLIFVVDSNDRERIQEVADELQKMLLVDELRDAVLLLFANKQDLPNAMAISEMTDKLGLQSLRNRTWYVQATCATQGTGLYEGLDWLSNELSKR
Sequence of SW480 colon carcinoma cells lysate proteins (Homo sapiens, UniProt O14602) (O14602 whole entry): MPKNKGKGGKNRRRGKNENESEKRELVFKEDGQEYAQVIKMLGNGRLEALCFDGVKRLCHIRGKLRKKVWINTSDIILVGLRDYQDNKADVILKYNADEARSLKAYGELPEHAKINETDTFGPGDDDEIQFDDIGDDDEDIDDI

Compound: C[C@H](Oc1cc(-c2cnn(C3CCNCC3)c2)cnc1N)c1c(Cl)ccc(F)c1Cl [(5)-crizotinib]
- AvgP [1]: 0.3949
- SC.Exp. 1-1 [1]: 2
- SC.Exp. 1-2 [1]: 3
- SC.Exp. 2-1 [1]: 0
- SC.Exp. 2-2 [1]: 0
- Sum (SC.Exp.) [1]: 5
- AvgP [2]: 0.4038
- SC.Exp. 1-1 [2]: 4
- SC.Exp. 1-2 [2]: 2
- SC.Exp. 2-1 [2]: 0
- SC.Exp. 2-2 [2]: 0
- Sum (SC.Exp.) [2]: 6
- AvgP [3]: 0.2283
- SC.Exp. 1-1 [3]: 12
- SC.Exp. 1-2 [3]: 12
- SC.Exp. 2-1 [3]: 2
- SC.Exp. 2-2 [3]: 0
- Sum (SC.Exp.) [3]: 26
- AvgP [4]: 0.352
- SC.Exp. 1-1 [4]: 3
- SC.Exp. 1-2 [4]: 3
- SC.Exp. 2-1 [4]: 0
- SC.Exp. 2-2 [4]: 0
- Sum (SC.Exp.) [4]: 6
- AvgP [5]: 0.4488
- SC.Exp. 1-1 [5]: 7
- SC.Exp. 1-2 [5]: 5
- SC.Exp. 2-1 [5]: 0
- SC.Exp. 2-2 [5]: 0
- Sum (SC.Exp.) [5]: 12
- AvgP [6]: 0.3773
- SC.Exp. 1-1 [6]: 4
- SC.Exp. 1-2 [6]: 5
- SC.Exp. 2-1 [6]: 0
- SC.Exp. 2-2 [6]: 0
- Sum (SC.Exp.) [6]: 9
- AvgP [7]: 0.2511
- SC.Exp. 1-1 [7]: 2
- SC.Exp. 1-2 [7]: 1
- SC.Exp. 2-1 [7]: 0
- SC.Exp. 2-2 [7]: 0
- Sum (SC.Exp.) [7]: 3
- AvgP [8]: 0
- SC.Exp. 1-1 [8]: 7
- SC.Exp. 1-2 [8]: 11
- SC.Exp. 2-1 [8]: 4
- SC.Exp. 2-2 [8]: 6
- SC.Exp. Sum [8]: 28
